How the values were obtained:
[1] = test system: kidney norepinephrine (NE); design: species or system porcine; details: pig, in vivo
[2] = test system: renal arteries; details: pig, in vivo
[3] = test system: sympathetic neurons; details: cited from earlier work

Compound	average NE level in renal cortex tissue [1]	reduction in renal cortex NE [1]	perivascular indications of denervation (histology) [2]	concentration accumulated within neurons in vivo [3]
Guanidine, [2-(hexahydro-1(2H)-azocinyl)ethyl]-, sulfate (1:1) [Guanethidine monosulfate]	64	86%	nerve degeneration characterized by hypervacuolization and eosinophilia	
N=C(N)NCCN1CCCCCCC1 [guanethidine, Guanidine, [2-(hexahydro-1(2H)-azocinyl)ethyl]-]				500 to 1000 µM

— patent US9011879B2 (priority 2009, dated 2015)
